Measured values reported in ChEMBL document CHEMBL1139708, “Sesquiterpene lactones are potent and irreversible inhibitors of the antibacterial target enzyme MurA” (Bioorg Med Chem Lett, 2006).
Activity calls are given as the source filed them. The calls are words filed in the database; no cut-off is given here.

Tests used:
[1] = target: UDP-N-acetylglucosamine 1-carboxyvinyltransferase (Escherichia coli K-12, UniProt P0A749); experiment: Inhibition of Escherichia coli K12 Mur A in presence of UNAG
[2] = target: UDP-N-acetylglucosamine 1-carboxyvinyltransferase (Pseudomonas aeruginosa (strain ATCC 15692 / PAO1 / 1C / PRS 101 / LMG12228), UniProt Q9HVW7); experiment: Inhibition of Pseudomonas aeruginosa PAO1293 MurA in presence of UNAG
[3] = system: UDP-N-acetylglucosamine 1-carboxyvinyltransferase (Escherichia coli K-12), P0A749 [C115D]; experiment: Inhibition of Escherichia coli K12 Mur A C115D at 50 uM in presence of UNAG
[4] = Inhibition of MurA at 5 uM; details: TDE = time-dependent effect
[5] = Inhibition of MurA at 10 uM; details: TDE = time-dependent effect

Sequence of UDP-N-acetylglucosamine 1-carboxyvinyltransferase (Escherichia coli K-12, UniProt P0A749) (P0A749 whole entry): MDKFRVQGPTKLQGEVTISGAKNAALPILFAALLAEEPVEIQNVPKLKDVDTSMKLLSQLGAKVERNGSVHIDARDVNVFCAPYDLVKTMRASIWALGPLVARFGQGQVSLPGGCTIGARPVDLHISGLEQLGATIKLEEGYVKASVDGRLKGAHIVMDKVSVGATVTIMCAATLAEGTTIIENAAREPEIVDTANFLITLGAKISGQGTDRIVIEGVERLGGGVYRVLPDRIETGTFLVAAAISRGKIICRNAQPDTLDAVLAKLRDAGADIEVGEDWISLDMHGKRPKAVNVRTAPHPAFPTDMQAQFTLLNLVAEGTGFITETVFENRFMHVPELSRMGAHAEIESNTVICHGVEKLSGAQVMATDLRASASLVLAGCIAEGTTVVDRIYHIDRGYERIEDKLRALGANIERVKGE
Sequence of UDP-N-acetylglucosamine 1-carboxyvinyltransferase (Pseudomonas aeruginosa (strain ATCC 15692 / PAO1 / 1C / PRS 101 / LMG12228), UniProt Q9HVW7) (Q9HVW7 whole entry): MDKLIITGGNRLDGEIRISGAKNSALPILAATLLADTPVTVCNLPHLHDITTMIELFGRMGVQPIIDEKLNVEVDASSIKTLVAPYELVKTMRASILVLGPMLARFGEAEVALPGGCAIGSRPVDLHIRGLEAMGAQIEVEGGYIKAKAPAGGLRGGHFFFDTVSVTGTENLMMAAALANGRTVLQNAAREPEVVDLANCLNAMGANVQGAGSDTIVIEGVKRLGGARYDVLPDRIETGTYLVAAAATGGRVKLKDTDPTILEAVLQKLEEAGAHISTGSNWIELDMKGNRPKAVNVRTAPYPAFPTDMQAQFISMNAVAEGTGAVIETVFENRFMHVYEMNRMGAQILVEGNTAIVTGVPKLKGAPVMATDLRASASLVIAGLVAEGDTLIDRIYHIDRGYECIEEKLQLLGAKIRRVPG
Sequence of UDP-N-acetylglucosamine 1-carboxyvinyltransferase (Escherichia coli K-12), P0A749 [C115D] (P0A749 whole entry C115D): as the sequence (P0A749 whole entry) above, with C115D counted along it

Row | IC50 [1] | IC50 [2] | Activity [3] | Structure (SMILES) | Activity [4] | Activity [5]
1 | > 50 µM | 27.8 µM | inactive | C=C1C(=O)O[C@@H]2C3O[C@]3(C)CC/C=C(\C)CC[C@@H]12 (some centres undefined) | – | –
2 | – | – | inactive | C=C1C(=O)O[C@@H]2/C=C(\C)CC/C=C(\C)CC[C@@H]12 (stereo in doubt; 7) | – | –
3 | > 50 µM | > 50 µM | – | C=C1C(=O)O[C@@H]2/C=C(\C)CC/C=C(\C)CC[C@@H]12 (stereo in doubt; 7) [COSTUNOLIDE] | – | –
4 | > 50 µM | > 50 µM | – | C=C1C(=O)O[C@@H]2/C=C(\C)CC/C=C(\C)CC[C@@H]12 (stereo in doubt; 10) [COSTUNOLIDE] | – | –
5 | 16.7 µM | 10.3 µM | inactive | C=C1C(=O)O[C@@H]2/C=C(\CO)CC/C=C(\C)C[C@H](OC(=O)C(=C)[C@H](O)CO)[C@@H]12 [CNICIN] | tde | –
6 | > 50 µM | > 50 µM | inactive | C=C1C(=O)O[C@@H]2C[C@@]3(C)CCC[C@H](C)C3=C[C@H]12 [HELENINE] | – | –

More lines, now with the values behind:

Row | Structure (SMILES) | IC50 [1] | IC50 [2] | Activity [3] | Activity [4] | Activity [5]
7 | C=C1C(=O)O[C@@H]2[C@@H]1CC[C@]1(C)CCC=C(C)[C@@H]21 | > 50 µM | > 50 µM | inactive | – | –
8 | C=C1C(=O)O[C@@H]2/C=C(\C)CC/C=C(\C)CC[C@@H]12 (stereo in doubt; 10) | – | – | inactive | – | –
9 | C=C(CO)C(=O)O[C@H]1CC(=C)[C@@H]2C[C@H](O)C(=C)[C@@H]2[C@H]2OC(=O)C(=C)[C@@H]21 [CYNAROPICRIN] | 19.5 µM | 12.1 µM | inactive | tde | –
10 | C=C1CC[C@H]2C(=C)CC[C@H]3C(=C)C(=O)O[C@@H]3[C@@H]12 [DEHYDROCOSTUSLACTONE] | > 50 µM | > 50 µM | inactive | – | –
11 | C=C1C(=O)O[C@@H]2/C=C(\C)CC/C=C(/C)C[C@@H](OC(=O)/C(=C/CO)CO)[C@@H]12 [EUPATORIOPICRIN] | 32.7 µM | 19.8 µM | inactive | – | tde
12 | C[C@@H]1O[C@@H]1P(=O)(O)O [FOSFOMYCIN] | 0.118 µM | 10.5 µM | inactive | tde | –
